In US20230212319A1, “NOVEL ANTIGEN BINDING DOMAINS AND SYNTHETIC ANTIGEN RECEPTORS INCORPORATING THE SAME” (University of Southern California, priority 2020, published 2023):

Key:
[1] = Flow cytometry of expanded CAR-T/SIR-T cells (Protein L staining, T cell surface markers); type: cell-based, human; conditions: CAR-T and SIR-T cells expanded 7 days with 1 µM
Procedure: Cells were expanded in XVIVO medium under standard conditions in the presence of IL2 and CD3/CD28 beads in the absence or presence of Birinapant 1 µM for 7 days and. After 7 days, cells were analyzed by flow cytometry for expression of different cell surface markers.
Cells were pelleted and re-suspended in XVIVO-15 (Lonza) T-cell medium supplemented with PSA, 100 IU/ml recombinant human IL2 and Dynabeads Human T-Activator CD3/CD28 and 5% hAB serum.
The cells were analyzed by flow cytometery for expresson of SIR by staining with Protein L and for presence of different T cell markers.
After 13 days of culture, cells were counted and analyzed by flow cytometry.

Nalm6 cells = assay: Cytokine ELISA (IFNγ, TNFα, IL-2) after co-culture with Nalm6; type: cell-based; conditions: T cells expanded 7 days with compound, co-cultured with Nalm6 48 h
Procedure: After 48 h, supernatant was collected and used for measurement of IFNγ, TNFα and IL-2 by ELISA.
Control T cells or SIR-T cells grown in regular flask or G-Rex 6-well plate were cultured with Nalm6-hGLuc 100 K/well/100 ul in 96-well plate U-bottom in XVIVO medium with no additional component. After 48 h co-culture, supernatant was collected and used for ELISA.
The supernatant from the different cell populations were tested for cytokine production upon co-culture with NALM6 cells.

RAJI cells = assay: T cell cytotoxicity against RAJI (Matador assay, Gluc); type: cell-based

Compound: CC[C@H](NC(=O)[C@H](C)NC)C(=O)N1C[C@@H](O)C[C@H]1Cc1c(-c2[nH]c3cc(F)ccc3c2C[C@@H]2C[C@H](O)CN2C(=O)[C@H](CC)NC(=O)[C@H](C)NC)[nH]c2cc(F)ccc12 [Birinapant]
- CD4 cells [1]: decline
- CD62L cells [1]: increase
- proportion of CD8 cells [1]: increase
- IFNγ secretion (Nalm6 cells): no significant decrease
- IL2 secretion (Nalm6 cells): no significant decrease
- TNFα secretion (Nalm6 cells): no significant decrease
- non-specific killing by uninfected control T cells expanded in presence of SMAC mimetic (RAJI cells; 100 nM or 1 µM, 16 days, RAJI-Gluc, 4 h): no effect
- cell killing of RAJI cells by SAR-T cells expanded in presence of SMAC mimetic (RAJI cells; SAR SEQ ID NO: 7348 T cells expanded 16 days with 100 nM or 1 µM, E:T 0.25:1 and 0.5:1, 4 h): dose dependent increase
